How the values were obtained:
[1] = tested on: IL-6; assay: IL-6 ELISA, MM cells co-cultured with BMSCs; format: cell-based, human
[2] = target: ERBB4 (Homo sapiens, UniProt Q15303); assay: Kinase inhibitory profile; format: biochemical; conditions: Other Clinically-relevant Kinases; 10-point concentration assays
[3] = target: p110-α (Homo sapiens, UniProt P42336); assay: Kinase inhibitory profile / PIP3 production; parameters: Inhibitory profile (kinase inhibition): key to the marks not given beside the values
[4] = tested on: MM cells; assay: XTT viability, MM cells (DT97 vs idelalisib); format: cell-based; conditions: parental and drug-resistant MM cells; 1 uM; 72 h; XTT assay
Method: (§1) Values represent the average of triplicate measurements. […] Values represent the average of triplicate measurements. […] Values represent the average of triplicate measurements.
(§2) Cells were plated, treated as indicated for 72 h and 2, 3-bis-(2-methoxy-4-nitro-5-sulfophenyl)-2H-tetrazolium-5-carboxanilide) added (Sigma-Aldrich) after activation with N-methyl dibenzopyrazine methyl sulfate (Sigma-Aldrich). Absorbance was measured and the effect on myeloma viability determined as previously described. Assays were performed in triplicate and the mean and standard deviation determined. Relative cell viability (mean ± SD) was calculated compared to readings from untreated cells.

[5] = tested on: HO-92; assay: NCI-60 panel cell growth screen; format: cell-based, human; conditions: HO-92 (NSCLC)
[6] = tested on: MAPK; assay: Kinase inhibitory profile; format: biochemical; conditions: Other Clinically-relevant Kinases; 10-point concentration assays
[7] = tested on: SF-539; assay: NCI-60 panel cell growth screen; format: cell-based, human; conditions: SF-539 (CNS Cancer)
[8] = target: p110-γ (Homo sapiens, UniProt P48736); assay: Kinase inhibitory profile / PIP3 production
Method: To directly assess PI3K activity, PI3K was isolated by immunoprecipitation using an antibody to the p85 adapter subunit and the ability of the co-precipitated catalytic p110 subunit to convert PIP2 to PIP3 in a kinase reaction assessed by measuring the amount of PIP3 generated using a competitive ELISA [40, 41]. […] Lysates were centrifuged at 13,000 × rpm for 10 min and supernatants stored at −80°C. Frozen lysates were thawed and PI3K immunoprecipitated with 5 μl anti-PI3K p85 (Cell Signaling Technology, Danvers, MA) for 1 h at 4°C, followed by the addition of 60 μl of a 50% slurry of Protein A agarose beads for 1 h at 4°C. The immunoprecipitate was collected by centrifugation at 13,000 × rpm for 10 sec, washed 3 times in buffer A + 1% NP40, thrice with 0.1 M Tris-HCl, pH 7.4, 5 mM LiCl, 0.1 mM Na orthovanadate and twice with 10 mM Tris-HCl, pH 7.4, 150 mM NaCl, 5 mM ethylenediaminetetraacetic acid (EDTA), 0.1 mM Na orthovanadate. […] Reactions were incubated for 3 h at 37°C with 40 pmol PIP2 (Echelon Biosciences, Salt Lake City, UT). Reactions were stopped with EDTA (5 mM) and centrifuged at 13,000 × rpm at 4°C. Supernatants were transferred to a microtitre plate for a competitive ELISA (Echelon Biosciences) to quantify PIP3 generated. […] Absorbance was measured (450 nm) and PIP3 quantified using a standard curve generated with experimental samples and plotted on a log scale.

[9] = tested on: HT29; assay: NCI-60 panel cell growth screen; format: cell-based, human; conditions: HT29 (Colon cancer)
[10] = target: DNA-PK (Homo sapiens, UniProt P78527); assay: Kinase inhibitory profile; format: biochemical; conditions: Class IV PI3Ks; 10-point concentration assays
[11] = tested on: COLO205; assay: NCI-60 panel cell growth screen; format: cell-based, human; conditions: COLO205 (Colon cancer)
[12] = tested on: ERK1/2; assay: Immunoblot of ERK1/2 phosphorylation in MM cells; format: cell-based; conditions: DT97 500 nm or 1 uM for 48 h
[13] = tested on: SR; assay: NCI-60 panel cell growth screen; format: cell-based, human; conditions: SR (Leukemia)
[14] = tested on: PKCγ; assay: Kinase inhibitory profile; format: biochemical; conditions: Class II PI3Ks; 10-point concentration assays
[15] = target: ERBB2 (Homo sapiens, UniProt P04626); assay: Kinase inhibitory profile; format: biochemical; conditions: Other Clinically-relevant Kinases; 10-point concentration assays
[16] = tested on: NCI-H522; assay: NCI-60 panel cell growth screen; format: cell-based, human; conditions: NCI-H522 (NSCLC)
[17] = tested on: CCRF-CEM; assay: NCI-60 panel cell growth screen; format: cell-based, human; conditions: CCRF-CEM (Leukemia)
[18] = tested on: Myeloma/ Leukemia/ Lymphoma; assay: NCI-60 panel cell growth screen (Figure 6); format: cell-based, human
[19] = target: PKC2-α (Homo sapiens, UniProt O00443); assay: Kinase inhibitory profile; format: biochemical; conditions: Class II PI3Ks; 10-point concentration assays
[20] = tested on: NCI-H332M; assay: NCI-60 panel cell growth screen; format: cell-based, human; conditions: NCI-H332M (NSCLC)
[21] = tested on: RPMI8226 cells; assay: XTT viability of RPMI8226 cells after PIK3CD shRNA knockdown; format: cell-based; conditions: XTT assay
Method: as §1, §2
shRNA in pLKO.1-TCR lentiviral cloning vectors were transfected into 293T packaging cells with packaging and envelope vector using lipofectamine 2000 (Thermo-Fisher). Viral supernatants were used to transduce myeloma cells. After 48 h, virus was collected and RPMI8226 cells transduced with vectors expressing scrambled (control) or p110-specific shRNA. Cells were mixed with virus and polybrene (8 μg/mL), centrifuged at 2000 × rpm for 90 min, incubated overnight, media changed and selected in puromycin.

[22] = tested on: BMSCs; assay: XTT viability of BMSCs; format: cell-based; conditions: 72 h, XTT assay
[23] = target: PKC2β (Homo sapiens, UniProt O00750); assay: Kinase inhibitory profile; format: biochemical; conditions: Class II PI3Ks; 10-point concentration assays
[24] = Class I PI3Ks, 10-point concentration assays
[25] = read-out: LC50 (the source's name)

p110-γ, sequence (P48736 whole entry): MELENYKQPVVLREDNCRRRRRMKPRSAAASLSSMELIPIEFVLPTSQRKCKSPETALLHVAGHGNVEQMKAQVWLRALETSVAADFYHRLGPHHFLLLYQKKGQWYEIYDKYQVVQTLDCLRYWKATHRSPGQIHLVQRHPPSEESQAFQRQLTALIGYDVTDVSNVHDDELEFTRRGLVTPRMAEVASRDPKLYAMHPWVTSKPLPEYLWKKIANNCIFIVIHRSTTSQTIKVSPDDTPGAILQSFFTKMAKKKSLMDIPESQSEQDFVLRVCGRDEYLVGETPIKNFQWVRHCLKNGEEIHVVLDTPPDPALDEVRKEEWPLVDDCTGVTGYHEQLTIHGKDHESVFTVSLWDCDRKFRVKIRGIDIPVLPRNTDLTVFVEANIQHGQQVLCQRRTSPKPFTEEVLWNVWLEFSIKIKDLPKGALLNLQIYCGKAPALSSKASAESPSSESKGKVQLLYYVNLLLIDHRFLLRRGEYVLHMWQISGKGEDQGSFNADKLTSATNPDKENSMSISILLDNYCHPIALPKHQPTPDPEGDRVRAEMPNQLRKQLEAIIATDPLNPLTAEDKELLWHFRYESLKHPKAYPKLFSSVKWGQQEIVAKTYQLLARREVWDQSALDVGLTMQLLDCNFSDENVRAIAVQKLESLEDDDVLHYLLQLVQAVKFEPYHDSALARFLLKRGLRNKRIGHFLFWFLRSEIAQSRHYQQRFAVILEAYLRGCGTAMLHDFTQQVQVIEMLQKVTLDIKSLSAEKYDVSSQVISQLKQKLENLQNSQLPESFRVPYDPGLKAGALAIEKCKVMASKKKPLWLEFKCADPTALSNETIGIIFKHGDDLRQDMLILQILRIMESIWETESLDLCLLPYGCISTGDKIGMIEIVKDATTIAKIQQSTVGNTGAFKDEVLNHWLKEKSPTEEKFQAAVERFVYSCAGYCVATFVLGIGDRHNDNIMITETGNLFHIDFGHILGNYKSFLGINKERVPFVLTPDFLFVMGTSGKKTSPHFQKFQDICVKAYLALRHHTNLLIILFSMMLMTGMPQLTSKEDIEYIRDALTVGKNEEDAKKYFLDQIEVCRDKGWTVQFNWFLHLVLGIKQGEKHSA
p110-α, sequence (P42336 whole entry): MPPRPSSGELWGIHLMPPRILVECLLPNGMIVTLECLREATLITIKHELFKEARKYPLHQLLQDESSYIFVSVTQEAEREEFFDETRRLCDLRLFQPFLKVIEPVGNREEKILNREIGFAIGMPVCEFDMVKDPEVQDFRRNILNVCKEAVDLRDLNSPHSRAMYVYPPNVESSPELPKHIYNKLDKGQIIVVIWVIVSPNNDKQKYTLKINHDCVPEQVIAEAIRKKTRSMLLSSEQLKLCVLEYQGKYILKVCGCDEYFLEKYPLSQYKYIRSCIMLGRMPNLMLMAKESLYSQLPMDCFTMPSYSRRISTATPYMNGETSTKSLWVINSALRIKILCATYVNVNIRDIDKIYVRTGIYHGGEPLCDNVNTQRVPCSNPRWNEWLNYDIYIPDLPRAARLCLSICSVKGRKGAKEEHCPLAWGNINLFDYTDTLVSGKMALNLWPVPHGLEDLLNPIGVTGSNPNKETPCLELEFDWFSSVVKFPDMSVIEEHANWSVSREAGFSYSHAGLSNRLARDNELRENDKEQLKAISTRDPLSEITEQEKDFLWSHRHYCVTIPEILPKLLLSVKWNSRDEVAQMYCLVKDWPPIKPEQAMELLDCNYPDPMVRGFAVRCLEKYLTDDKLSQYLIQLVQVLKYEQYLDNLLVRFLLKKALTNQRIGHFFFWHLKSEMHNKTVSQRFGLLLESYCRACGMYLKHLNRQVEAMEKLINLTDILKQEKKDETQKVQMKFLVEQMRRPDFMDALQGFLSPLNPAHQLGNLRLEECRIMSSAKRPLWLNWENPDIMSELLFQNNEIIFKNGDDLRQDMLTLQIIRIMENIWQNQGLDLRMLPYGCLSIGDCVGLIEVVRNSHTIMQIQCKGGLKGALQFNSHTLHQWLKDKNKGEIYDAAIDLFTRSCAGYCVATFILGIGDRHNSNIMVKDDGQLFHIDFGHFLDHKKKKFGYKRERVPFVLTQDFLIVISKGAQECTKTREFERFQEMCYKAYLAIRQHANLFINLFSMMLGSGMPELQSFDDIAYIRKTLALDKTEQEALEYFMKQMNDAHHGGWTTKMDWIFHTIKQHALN
p110-α, sequence (P27986 whole entry partner): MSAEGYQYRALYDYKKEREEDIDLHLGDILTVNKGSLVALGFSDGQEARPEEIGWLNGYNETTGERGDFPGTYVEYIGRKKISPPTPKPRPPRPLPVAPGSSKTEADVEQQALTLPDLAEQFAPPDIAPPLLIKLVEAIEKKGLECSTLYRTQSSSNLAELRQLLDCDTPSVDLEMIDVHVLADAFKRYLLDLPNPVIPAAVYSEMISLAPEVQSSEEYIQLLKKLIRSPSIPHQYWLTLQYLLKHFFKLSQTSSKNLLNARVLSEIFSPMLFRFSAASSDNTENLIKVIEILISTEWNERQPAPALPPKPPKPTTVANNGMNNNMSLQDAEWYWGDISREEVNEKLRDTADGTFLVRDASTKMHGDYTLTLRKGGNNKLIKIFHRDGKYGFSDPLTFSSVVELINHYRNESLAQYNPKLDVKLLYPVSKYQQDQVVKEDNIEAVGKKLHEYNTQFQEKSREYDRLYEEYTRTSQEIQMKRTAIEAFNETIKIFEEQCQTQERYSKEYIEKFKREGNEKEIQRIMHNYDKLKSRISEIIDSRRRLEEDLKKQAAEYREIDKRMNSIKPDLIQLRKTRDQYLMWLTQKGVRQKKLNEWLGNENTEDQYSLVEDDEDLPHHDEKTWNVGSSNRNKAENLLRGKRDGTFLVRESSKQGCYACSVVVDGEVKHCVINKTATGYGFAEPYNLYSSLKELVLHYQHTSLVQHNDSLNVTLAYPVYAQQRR
ERBB4, sequence (Q15303 26-1308): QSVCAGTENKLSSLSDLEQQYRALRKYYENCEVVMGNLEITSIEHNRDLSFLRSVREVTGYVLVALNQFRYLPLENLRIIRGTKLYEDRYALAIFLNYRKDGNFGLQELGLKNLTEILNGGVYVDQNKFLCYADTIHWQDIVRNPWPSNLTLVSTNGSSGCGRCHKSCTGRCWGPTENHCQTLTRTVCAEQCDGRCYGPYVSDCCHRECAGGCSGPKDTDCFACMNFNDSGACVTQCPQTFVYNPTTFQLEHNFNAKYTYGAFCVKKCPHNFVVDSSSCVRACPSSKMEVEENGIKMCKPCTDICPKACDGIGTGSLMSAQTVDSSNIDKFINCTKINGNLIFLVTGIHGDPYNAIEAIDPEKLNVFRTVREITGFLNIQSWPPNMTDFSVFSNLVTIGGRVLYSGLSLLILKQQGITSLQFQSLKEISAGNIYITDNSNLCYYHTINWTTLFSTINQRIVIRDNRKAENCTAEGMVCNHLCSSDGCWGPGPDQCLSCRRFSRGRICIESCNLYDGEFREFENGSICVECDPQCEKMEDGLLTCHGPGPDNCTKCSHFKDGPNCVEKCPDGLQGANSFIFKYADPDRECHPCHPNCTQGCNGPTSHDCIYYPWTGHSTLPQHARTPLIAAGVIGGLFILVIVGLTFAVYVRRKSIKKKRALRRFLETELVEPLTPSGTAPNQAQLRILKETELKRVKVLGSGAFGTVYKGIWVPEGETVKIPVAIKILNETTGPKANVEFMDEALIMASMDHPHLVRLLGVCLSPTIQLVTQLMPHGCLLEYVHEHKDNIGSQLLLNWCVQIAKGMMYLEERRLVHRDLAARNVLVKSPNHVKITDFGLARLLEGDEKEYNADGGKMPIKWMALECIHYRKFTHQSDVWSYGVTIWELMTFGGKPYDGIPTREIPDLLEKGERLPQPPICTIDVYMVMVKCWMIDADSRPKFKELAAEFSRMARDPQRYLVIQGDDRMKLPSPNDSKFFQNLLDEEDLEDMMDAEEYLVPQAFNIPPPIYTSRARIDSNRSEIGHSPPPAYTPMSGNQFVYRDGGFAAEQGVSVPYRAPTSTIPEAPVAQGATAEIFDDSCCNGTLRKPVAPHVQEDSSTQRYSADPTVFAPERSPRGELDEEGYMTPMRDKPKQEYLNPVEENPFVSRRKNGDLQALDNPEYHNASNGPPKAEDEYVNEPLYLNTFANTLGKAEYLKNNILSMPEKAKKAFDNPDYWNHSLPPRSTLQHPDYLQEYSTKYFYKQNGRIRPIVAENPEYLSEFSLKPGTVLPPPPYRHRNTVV

## N-[4-hydroxy-3-(8-quinolinylthio)-1-naphthyl]benzenesulfonamide [DT97]
[1]
  production of Il-6: induction was inhibited
[2]
  Inhibitory profile (kinase inhibition): +
[3]; [24]
  Inhibitory profile (kinase inhibition): ++
[3]; p110-α isoform, Figure 4B
  production of PIP3 (dose-dependent effect): weaker activity
[4]
  viability: more potently than idelalisib
[5]
  GI50: 2610 nM
  TGI: 7.38E-6
[5]; log concentration −4.0
  Percent Growth: −89%
[5]; log concentration −5.0
  Percent Growth: −15%
[5]; log concentration −6.0
  Percent Growth: 96%
[5]; log concentration −7.0
  Percent Growth: 77%
[5]; log concentration −8.0
  Percent Growth: 84%
[5]; [25]
  CC50: 29800 nM
[6]
  Inhibitory profile (kinase inhibition): +
[7]
  GI50: 957 nM
  TGI: 5.13E-6
[7]; log concentration −4.0
  Percent Growth: −86%
[7]; log concentration −5.0
  Percent Growth: −20%
[7]; log concentration −6.0
  Percent Growth: 49%
[7]; log concentration −7.0
  Percent Growth: 98%
[7]; log concentration −8.0
  Percent Growth: 93%
[7]; [25]
  CC50: 28500 nM
[8]; [24]
  Inhibitory profile (kinase inhibition): none
[8]; p110-γ isoform, Figure 4B
  production of PIP3 (dose-dependent effect): no effect
[9]
  GI50: 2420 nM
  TGI: 1.44E-5
[9]; log concentration −4.0
  Percent Growth: −44%
[9]; log concentration −5.0
  Percent Growth: 8%
[9]; log concentration −6.0
  Percent Growth: 76%
[9]; log concentration −7.0
  Percent Growth: 108%
[9]; log concentration −8.0
  Percent Growth: 103%
[9]; [25]
  CC50: > 100000 nM
[10]
  Inhibitory profile (kinase inhibition): +
[11]
  GI50: 1710 nM
  TGI: 3.70E-6
[11]; log concentration −4.0
  Percent Growth: −59%
[11]; log concentration −5.0
  Percent Growth: −64%
[11]; log concentration −6.0
  Percent Growth: 85%
[11]; log concentration −7.0
  Percent Growth: 99%
[11]; log concentration −8.0
  Percent Growth: 94%
[11]; [25]
  CC50: 8030 nM
[12]
  phosphorylation of ERK1/2 at Thre202/Tyr-204: reduced the phosphorylation
[13]
  GI50: 426 nM
  TGI: 1.72E-5
[13]; log concentration −4.0
  Percent Growth: −15%
[13]; log concentration −5.0
  Percent Growth: 5%
[13]; log concentration −6.0
  Percent Growth: 13%
[13]; log concentration −7.0
  Percent Growth: 113%
[13]; log concentration −8.0
  Percent Growth: 109%
[13]; [25]
  CC50: > 100000 nM
[14]
  Inhibitory profile (kinase inhibition): none
[15]
  Inhibitory profile (kinase inhibition): +
[16]
  GI50: 2120 nM
  TGI: 8.17E-6
[16]; log concentration −4.0
  Percent Growth: −48%
[16]; log concentration −5.0
  Percent Growth: −7%
[16]; log concentration −6.0
  Percent Growth: 68%
[16]; log concentration −7.0
  Percent Growth: 95%
[16]; log concentration −8.0
  Percent Growth: 95%
[17]
  GI50: 426 nM
  TGI: 1.60E-5
[17]; log concentration −4.0
  Percent Growth: −7%
[17]; log concentration −5.0
  Percent Growth: 2%
[17]; log concentration −6.0
  Percent Growth: 17%
[17]; log concentration −7.0
  Percent Growth: 106%
[17]; log concentration −8.0
  Percent Growth: 104%
[17]; [25]
  CC50: > 100000 nM
[18]
  IC50: ~450 nM
[19]
  Inhibitory profile (kinase inhibition): none
[20]
  GI50: 2310 nM
  LC50: 39400 nM
  TGI: 1.37E-5
[20]; log concentration −4.0
  Percent Growth: −94%
[20]; log concentration −5.0
  Percent Growth: 15%
[20]; log concentration −6.0
  Percent Growth: 70%
[20]; log concentration −7.0
  Percent Growth: 94%
[20]; log concentration −8.0
  Percent Growth: 94%
[21]
  viability: little effect
[22]
  viability: did not significantly reduce the viability
[23]
  Inhibitory profile (kinase inhibition): +

Reference: PMC5122408, “High throughput chemical library screening identifies a novel p110-δ inhibitor that potentiates the anti-myeloma effect of bortezomib” (Oncotarget, 2016)
